Patent publication US20230218761A1, “METHOD FOR DECOMPOSING COMPOUND AND COMPOUND” (NATIONAL UNIVERSITY CORPORATION HOKKAIDO UNIVERSITY, priority 2020, published 2023)

What was measured:
Type in all cases: physicochemical
[1] = Decomposition of compound by X-ray irradiation, residual ratio by HPLC (Examples 5 to 8); conditions: 0.5 μM compound in 0.1-M phosphoric acid buffer pH 7.0, bubbled with Ar, X-rays 6 MeV, 20 Gy, 4.4 Gy/min
Procedure: HPLC System: HPLC system (produced by Shimadzu Corporation) equipped with a reverse-phase column Inertsil ODS-3 (10 mm×250 mm) (produced by GL Sciences).
Eluent A: 0.1-M triethylamine acetic acid buffer solution
This buffer solution was used as an X-ray irradiation solution for the compound.
The X-ray irradiation solution for the compound was bubbled with Ar and then irradiated with X-rays at 6 MeV (20 Gy, 4.4 Gy/min) using LINAC (linear accelerator).
The peak area ratio was calculated on the basis of the areas of absorption peaks of the compound and methylene blue. The ratio between the concentrations of methylene blue and the compound was determined using the calibration curve. The concentration of the compound was calculated using the known concentration of the methylene blue. Thus, the residual ratio (Post/Pre (%)) of the compound was determined.
Note that, the smaller the residual ratio (Post/Pre (%)), the higher the degree of progress of the decomposition (selectively decomposition of chemical bonds; dissociation of axial ligands) by X-rays.

[2] = Impact of radical species on decomposition of the compound by X-ray irradiation (residual ratio by HPLC); conditions: 6 MeV
Procedure: Sodium formate was added to a 5-μM aqueous solution of the compound 2 as a radical scavenger. While degassing was performed using Ar, the resulting mixture was irradiated with X-rays (6 MeV) using LINAC such that the amount of X-rays absorbed was 2, 3, 4, or 5 Gy. Immediately after the irradiation, the degassing was stopped and the sample irradiated with X-rays was analyzed using HPLC as in Example 5 to calculate the residual ratios of the compound 2 under the above irradiation conditions. Note that, when the amount of X-rays emitted was 5 Gy, the amount of e^−aq (hydrated electrons) produced was 1.6 μM and the amount of CO2^−·(carbon dioxide anion radicals) produced was 1.6 μM. The irradiation and calculation of the residual ratio were conducted three times for each case, and the average was considered as the residual ratio (Post/Pre (%)) of the compound 2.
The residual ratio (Post/Pre (%)) of the compound 2 was calculated as in Reference Example 3, except that the degassing was stopped after the Ar degassing had been maintained 30 minutes subsequent to the X-ray irradiation.
The residual ratio (Post/Pre (%)) of the compound 2 was calculated as in Reference Example 3, except that, instead of sodium formate, sodium formate and nitrous oxide were used as a radical scavenger. Note that, when the amount of X-rays emitted was 5 Gy, the amount of e^−aq (hydrated electrons) produced was 0 μM and the amount of CO2^−·(carbon dioxide anion radicals) produced was 3.1 μM.
The residual ratio (Post/Pre (%)) of the compound 2 was calculated as in Reference Example 5, except that the degassing was stopped after the Ar degassing had been maintained 30 minutes subsequent to the X-ray irradiation.
The residual ratio (Post/Pre (%)) of the compound 2 was calculated as in Reference Example 3, except that the radical scavenger was not used.
The results obtained in Reference Example 3 to 6 confirm that, even in the case where the amount of X-ray (6 MeV) emitted is 10 Gy or less, that is, for example, 2 to 5 Gy, the selective decomposition of the chemical bonds of the compound 2 (dissociation of axial ligands) occurs due to the action of e^−aq (hydrated electrons) and/or CO2^−·(carbon dioxide anion radicals). It was also confirmed that continuing the Ar degassing subsequent to the irradiation enables the selective decomposition of the chemical bonds of the compound 2 to occur.
On the basis of the results obtained in Reference Examples 3 to 6, it is also considered that e^−aq (hydrated electrons) and/or CO2^−·(carbon dioxide anion radicals) contribute to the dissociation of the axial ligands of the compound 2. Since the residual ratio of the compound 2 decreased in the cases where the degassing was maintained, it is also considered that maintaining the degassing causes a radical chain reaction responsible for the dissociation of the axial ligands.

[3] = Impact of pH on decomposition of the compound by X-ray irradiation (residual ratio by HPLC); conditions: X-rays 6 MeV, 20 Gy absorbed, average of three
Procedure: In a phosphoric acid buffer solution having a pH of 6 or 7, 5 μM of the compound 2 was dissolved. While degassing was performed using Ar, the resulting mixture was irradiated with X-rays (6 MeV) using LINAC such that the amount of X-rays absorbed was 20 Gy. The sample irradiated with X-rays was analyzed using HPLC as in Example 5 to calculate the residual ratios of the compound 2 at the above pH values. The above calculation was conducted three times for each case, and the average was considered as the residual ratio (Post/Pre (%)) of the compound 2.
In Reference Example 2 where the compound 2 was dissolved in a phosphoric acid buffer solution having a pH of 7, the residual ratio (Post/Pre (%)) at which the compound 2 remained after the X-ray irradiation was 50.0%.
This confirms that, the lower the pH, the higher the likelihood of dissociation of the axial ligands.

For “Bis{3-[Tris(3-Sulfopropyl)]Ammoniopropyldimethylsilyl Oxide} Silicon Phthalocyanine [Compound 1]”, the “Post/pre (%) residual ratio of the compound after X-ray irradiation” value (from here on “Post/pre (%) residual ratio”) [1] was 52.5%.

In the case of “Bis({6-[Tris(3-Sulfopropyl)]Ammoniohexanoyl} Oxide) Silicon Phthalocyanine [Compound 3]”, the “Post/pre (%) residual ratio” value [1] is reported as 62.1%.

For “Bis{4-[Tris(3-Sulfopropyl)]Ammoniobutyloxide} Silicon Phthalocyanine [Compound 2]”, the “Post/pre (%) residual ratio” value [1] was 46.8%, the “residual ratio (Post/Pre (%))” value ([2]; Reference example 3: 5 μM aqueous, sodium formate, Ar degassing stopped immediately after irradiation, 2 Gy absorbed) was 98.4% and the “residual ratio (Post/Pre (%))” value ([2]; Reference example 3: 5 μM aqueous, sodium formate, Ar degassing stopped immediately after irradiation, 3 Gy absorbed) was 93.3%. For the same substance, the “residual ratio (Post/Pre (%))” value ([2]; Reference example 3: 5 μM aqueous, sodium formate, Ar degassing stopped immediately after irradiation, 4 Gy absorbed) was 89.5%, the “residual ratio (Post/Pre (%))” value ([2]; Reference example 3: 5 μM aqueous, sodium formate, Ar degassing stopped immediately after irradiation, 5 Gy absorbed) was 8.8% and the “residual ratio (Post/Pre (%))” value ([2]; Reference example 4: sodium formate, Ar degassing maintained 30 minutes after irradiation, 2 Gy absorbed) was 100%. For the same substance, the “residual ratio (Post/Pre (%))” value ([2]; Reference example 4: sodium formate, Ar degassing maintained 30 minutes after irradiation, 3 Gy absorbed) was 49.9%, the “residual ratio (Post/Pre (%))” value ([2]; Reference example 4: sodium formate, Ar degassing maintained 30 minutes after irradiation, 4 Gy absorbed) was 0.3% and the “residual ratio (Post/Pre (%))” value ([2]; Reference example 4: sodium formate, Ar degassing maintained 30 minutes after irradiation, 5 Gy absorbed) was 0%. The “residual ratio (Post/Pre (%))” value ([2]; Reference example 5: sodium formate and nitrous oxide, degassing stopped immediately after irradiation, 2 Gy absorbed) was 96.0%, the “residual ratio (Post/Pre (%))” value ([2]; Reference example 5: sodium formate and nitrous oxide, degassing stopped immediately after irradiation, 3 Gy absorbed) was 90.4% and the “residual ratio (Post/Pre (%))” value ([2]; Reference example 5: sodium formate and nitrous oxide, degassing stopped immediately after irradiation, 4 Gy absorbed) was 86.2%. For the same substance, the “residual ratio (Post/Pre (%))” value ([2]; Reference example 5: sodium formate and nitrous oxide, degassing stopped immediately after irradiation, 5 Gy absorbed) was 8.3%, the “residual ratio (Post/Pre (%))” value ([2]; Reference example 6: sodium formate and nitrous oxide, Ar degassing maintained 30 minutes after irradiation, 2 Gy absorbed) was 93.1% and the “residual ratio (Post/Pre (%))” value ([2]; Reference example 6: sodium formate and nitrous oxide, Ar degassing maintained 30 minutes after irradiation, 3 Gy absorbed) was 85.4%. For the same substance, the “residual ratio (Post/Pre (%))” value ([2]; Reference example 6: sodium formate and nitrous oxide, Ar degassing maintained 30 minutes after irradiation, 4 Gy absorbed) was 36.1%, the “residual ratio (Post/Pre (%))” value ([2]; Reference example 6: sodium formate and nitrous oxide, Ar degassing maintained 30 minutes after irradiation, 5 Gy absorbed) was 4.8% and the “residual ratio (Post/Pre (%))” value ([2]; Reference example 7: no radical scavenger, Ar degassing, 2 Gy absorbed) was 100%. For the same substance, the “residual ratio (Post/Pre (%))” value ([2]; Reference example 7: no radical scavenger, Ar degassing, 3 Gy absorbed) was 99.4%, the “residual ratio (Post/Pre (%))” value ([2]; Reference example 7: no radical scavenger, Ar degassing, 4 Gy absorbed) was 99.4% and the “residual ratio (Post/Pre (%))” value ([2]; Reference example 7: no radical scavenger, Ar degassing, 5 Gy absorbed) was 100%. The “residual ratio (Post/Pre (%)) after X-ray irradiation” value ([3]; 5 μM in phosphoric acid buffer pH 6, Ar degassing) was 18.6% and the “residual ratio (Post/Pre (%)) after X-ray irradiation” value ([3]; 5 μM in phosphoric acid buffer pH 7, Ar degassing) was 50.0%.

With “Bis{4-[Tris(3-Sulfopropyl)]Ammoniomethylphenoxide} Silicon Phthalocyanine [Compound 4]” the “Post/pre (%) residual ratio” value [1] was 74.8%.
